# Experimental data taken from PubChem BioAssay AID1259407 (Chemical Carcinogenesis Research Information System (CCRIS), 2018).
# Calls of active or inactive are those of the source. The rule behind the calls is not given here.
# Test system: CCRIS mutagenicity, Ames/micronucleus/aberration tests
# Assay: CCRIS mutagenicity studies
# [1] = Test System: AMES SALMONELLA TYPHIMURIUM, Strain/Indicator: TA98, Metabolic Activation: NONE, Method: STANDARD PLATE
# [2] = Test System: AMES SALMONELLA TYPHIMURIUM, Strain/Indicator: TA100, Metabolic Activation: NONE, Method: STANDARD PLATE
# [3] = Test System: AMES SALMONELLA TYPHIMURIUM, Strain/Indicator: TA98, Metabolic Activation: HAMSTER, LIVER, S-9, AROCLOR 1254 (10%), Method: PREINCUBATION
# [4] = Test System: AMES SALMONELLA TYPHIMURIUM, Strain/Indicator: TA98, Metabolic Activation: NONE, Method: PREINCUBATION
# [5] = Test System: AMES SALMONELLA TYPHIMURIUM, Strain/Indicator: TA98, Metabolic Activation: RAT, LIVER, S-9, AROCLOR 1254 (10%), Method: PREINCUBATION
# [6] = Test System: AMES SALMONELLA TYPHIMURIUM, Strain/Indicator: TA100, Metabolic Activation: HAMSTER, LIVER, S-9, AROCLOR 1254 (10%), Method: PREINCUBATION
# [7] = Test System: AMES SALMONELLA TYPHIMURIUM, Strain/Indicator: TA100, Metabolic Activation: NONE, Method: PREINCUBATION
# [8] = Test System: AMES SALMONELLA TYPHIMURIUM, Strain/Indicator: TA100, Metabolic Activation: RAT, LIVER, S-9, AROCLOR 1254 (10%), Method: PREINCUBATION
# [9] = Test System: AMES SALMONELLA TYPHIMURIUM, Strain/Indicator: TA1535, Metabolic Activation: HAMSTER, LIVER, S-9, AROCLOR 1254 (10%), Method: PREINCUBATION
# [10] = Test System: AMES SALMONELLA TYPHIMURIUM, Strain/Indicator: TA1535, Metabolic Activation: NONE, Method: PREINCUBATION
# [11] = Test System: AMES SALMONELLA TYPHIMURIUM, Strain/Indicator: TA1535, Metabolic Activation: RAT, LIVER, S-9, AROCLOR 1254 (10%), Method: PREINCUBATION
# [12] = Test System: AMES SALMONELLA TYPHIMURIUM, Strain/Indicator: TA1537, Metabolic Activation: HAMSTER, LIVER, S-9, AROCLOR 1254 (10%), Method: PREINCUBATION
# [13] = Test System: AMES SALMONELLA TYPHIMURIUM, Strain/Indicator: TA1537, Metabolic Activation: NONE, Method: PREINCUBATION
# [14] = Test System: AMES SALMONELLA TYPHIMURIUM, Strain/Indicator: TA1537, Metabolic Activation: RAT, LIVER, S-9, AROCLOR 1254 (10%), Method: PREINCUBATION
# [15] = Test System: AMES SALMONELLA TYPHIMURIUM, Strain/Indicator: TA98, Metabolic Activation: RAT, LIVER, S-9, AROCLOR 1254, Method: STANDARD PLATE
# [16] = Test System: AMES SALMONELLA TYPHIMURIUM, Strain/Indicator: TA100, Metabolic Activation: RAT, LIVER, S-9, AROCLOR 1254, Method: STANDARD PLATE
# [17] = Test System: AMES SALMONELLA TYPHIMURIUM, Strain/Indicator: TA1535, Metabolic Activation: NONE, Method: STANDARD PLATE
# [18] = Test System: AMES SALMONELLA TYPHIMURIUM, Strain/Indicator: TA1535, Metabolic Activation: RAT, LIVER, S-9, AROCLOR 1254, Method: STANDARD PLATE
# [19] = Test System: AMES SALMONELLA TYPHIMURIUM, Strain/Indicator: TA1537, Metabolic Activation: NONE, Method: STANDARD PLATE
# [20] = Test System: AMES SALMONELLA TYPHIMURIUM, Strain/Indicator: TA1537, Metabolic Activation: RAT, LIVER, S-9, AROCLOR 1254, Method: STANDARD PLATE
# [21] = Test System: AMES SALMONELLA TYPHIMURIUM, Strain/Indicator: TA1538, Metabolic Activation: NONE, Method: STANDARD PLATE
# [22] = Test System: AMES SALMONELLA TYPHIMURIUM, Strain/Indicator: TA1538, Metabolic Activation: RAT, LIVER, S-9, AROCLOR 1254, Method: STANDARD PLATE
structure (smiles),measurement,setting,value
CC(=O)c1oc([N+](=O)[O-])c(-c2ccccc2)c1-c1ccccc1,mutagenic call,"Test System: AMES SALMONELLA TYPHIMURIUM, Strain/Indicator: TA98(NR), Metabolic Activation: NONE, Method: STANDARD PLATE",inactive; negative
same,mutagenic call,[1],active; positive
same,mutagenic call,"Test System: AMES SALMONELLA TYPHIMURIUM, Strain/Indicator: TA100(NR), Metabolic Activation: NONE, Method: STANDARD PLATE",inactive; negative
same,mutagenic call,[2],active; positive
COc1ccc([N+](=O)[O-])cc1N=Nc1c(O)c(C(=O)Nc2cccc([N+](=O)[O-])c2)cc2ccccc12,mutagenic call,[3],active; positive
same,mutagenic call,[4],active; positive
same,mutagenic call,[5],active; positive
same,mutagenic call,[6],active; positive
same,mutagenic call,[7],active; positive
same,mutagenic call,[8],active; positive
same,mutagenic call,[9],inactive; negative
same,mutagenic call,[10],inactive; negative
same,mutagenic call,[11],inactive; negative
same,mutagenic call,[12],active; positive
same,mutagenic call,[13],active; positive
same,mutagenic call,[14],active; positive
COc1c2c(cc3oc4c(CCC(C)(C)O)ccc(O)c4c(=O)c13)O[C@H]1OC=C[C@@H]21,mutagenic call,[1],active; positive
same,mutagenic call,[15],active; positive
same,mutagenic call,[2],inactive; negative
same,mutagenic call,[16],active; positive
COc1ccc2nc(N)sc2c1,mutagenic call,"Test System: AMES SALMONELLA TYPHIMURIUM, Strain/Indicator: TA98, Metabolic Activation: HAMSTER, LIVER, S-9, AROCLOR 1254, Method: STANDARD PLATE",active; positive
same,mutagenic call,[1],active; positive
same,mutagenic call,[15],active; positive
same,mutagenic call,"Test System: AMES SALMONELLA TYPHIMURIUM, Strain/Indicator: TA100, Metabolic Activation: HAMSTER, LIVER, S-9, AROCLOR 1254, Method: STANDARD PLATE",active; positive
same,mutagenic call,[2],inactive; negative
same,mutagenic call,[16],active; positive
same,mutagenic call,"Test System: AMES SALMONELLA TYPHIMURIUM, Strain/Indicator: TA1535, Metabolic Activation: HAMSTER, LIVER, S-9, AROCLOR 1254, Method: STANDARD PLATE",active; positive
same,mutagenic call,[17],inactive; negative
same,mutagenic call,[18],active; positive
same,mutagenic call,"Test System: AMES SALMONELLA TYPHIMURIUM, Strain/Indicator: TA1537, Metabolic Activation: HAMSTER, LIVER, S-9, AROCLOR 1254, Method: STANDARD PLATE",active; positive
same,mutagenic call,[19],inactive; negative
same,mutagenic call,[20],active; positive
same,mutagenic call,"Test System: AMES SALMONELLA TYPHIMURIUM, Strain/Indicator: TA1538, Metabolic Activation: HAMSTER, LIVER, S-9, AROCLOR 1254, Method: STANDARD PLATE",active; positive
same,mutagenic call,[21],active; positive
same,mutagenic call,[22],active; positive
same,mutagenic call,"Test System: MOUSE LYMPHOMA, Strain/Indicator: L5178Y (TK+/TK-), Metabolic Activation: NONE, Method: SUSPENSION/PLATE",inactive; negative. reevaluation of results: negative
same,mutagenic call,"Test System: MOUSE LYMPHOMA, Strain/Indicator: L5178Y (TK+/TK-), Metabolic Activation: RAT, LIVER, S-9, AROCLOR 1254, Method: SUSPENSION/PLATE",active; positive. reevaluation of results: positive
C=CCc1ccc(OC)cc1,mutagenic call,[3],inactive; negative
same,mutagenic call,[4],inactive; negative
same,mutagenic call,[1],inactive; negative
same,mutagenic call,[5],inactive; negative
same,mutagenic call,[15],inactive; negative
same,mutagenic call,[6],inactive; negative
same,mutagenic call,[7],inactive; negative
same,mutagenic call,[2],inactive; negative
same,mutagenic call,[8],inactive; negative
same,mutagenic call,[16],inactive; negative
same,mutagenic call,[9],inactive; negative
same,mutagenic call,[10],inactive; negative
same,mutagenic call,[17],inactive; negative
same,mutagenic call,"Test System: AMES SALMONELLA TYPHIMURIUM, Strain/Indicator: TA1535, Metabolic Activation: PAPS, Method: STANDARD PLATE",inactive; negative
same,mutagenic call,[11],inactive; negative
same,mutagenic call,"Test System: AMES SALMONELLA TYPHIMURIUM, Strain/Indicator: TA1535, Metabolic Activation: RAT, LIVER, S-9, AROCLOR 1254, PAPS, Method: STANDARD PLATE",active; positive
same,mutagenic call,[18],inactive; negative
same,mutagenic call,[12],inactive; negative
same,mutagenic call,[13],inactive; negative
same,mutagenic call,[19],inactive; negative
same,mutagenic call,[14],inactive; negative
same,mutagenic call,[20],inactive; negative
same,mutagenic call,[21],inactive; negative
same,mutagenic call,[22],inactive; negative
same,mutagenic call,"Test System: UDS RAT HEPATOCYTES, Strain/Indicator: THY INCORP, Metabolic Activation: NONE, Method: IN VITRO",active; positive
same,mutagenic call,"Test System: UDS RAT HEPATOCYTES, Strain/Indicator: THY INCORP, Metabolic Activation: NONE, Method: IN VIVO",active; positive
COc1c2ccoc2cc2oc(=O)ccc12,mutagenic call,[1],inactive; negative
same,mutagenic call,"Test System: AMES SALMONELLA TYPHIMURIUM, Strain/Indicator: TA98, Metabolic Activation: RAT, LIVER, S-9, PHENOBARBITAL, Method: STANDARD PLATE",inactive; negative
OCc1c2ccccc2cc2c1ccc1ccccc12,mutagenic call,[1],active; positive
same,mutagenic call,"Test System: AMES SALMONELLA TYPHIMURIUM, Strain/Indicator: TA98, Metabolic Activation: RAT, LIVER, S-9, 3'-PHOSPHOADENOSINE 5'-PHOSPHOSULFATE GENERATING SYSTEM, Method: PREINCUBATION",active; positive
same,mutagenic call,"Test System: AMES SALMONELLA TYPHIMURIUM, Strain/Indicator: TA98, Metabolic Activation: RAT, LIVER, S-9, NADPH GENERATING SYSTEM, Method: PREINCUBATION",active; positive
same,mutagenic call,"Test System: AMES SALMONELLA TYPHIMURIUM, Strain/Indicator: TA98, Metabolic Activation: RAT, LIVER, S-105, 3'-PHOSPHOADENOSINE 5'-PHOSPHOSULFATE GENERATING SYSTEM, Method: PREINCUBATION",active; positive
